Data reported in patent publication US20080311681A1, “Antibody Binding Affinity Ligands” (priority 2004, published 2008).
Values joined by “and” are separate entries in the source; they are usually repeats but may differ in a detail not shown here. Equal entries are not always repeated.

Each substance was assayed on monoclonal antibody (assay: Chromatographic evaluation of ligands coupled on Fractogel (packed column, load, wash, elution, regeneration)). Settings: not optimized operation conditions.
Assay type: binding
Description: The new resins were assessed in packed mode. 1 mL of each resin was packed into an HR5 chromatography column (GE Healthcare) applying standard conditions.
Before loading the matrix with the monoclonal antibody, the column was equilibrated with 6 column volumes equilibration buffer containing 50 mM Na-phosphate (pH 7.0; cond. 9 mS cm^−1). After equilibration a monoclonal antibody solution in equilibration buffer (protein conc. 1.14 mg/mL) was loaded to the column. Subsequently, the column was washed with 6 column volumes of equilibration buffer and eluted with 6 column volumes of elution buffer 1 (25 mM sodium acetate pH 5.5; cond. 1.8 mS cm^−1) and 6 column volumes of elution buffer 2 (25 mM sodium acetate buffer pH 3.8; 0.5 mS cm^−1). The column was stored in […] ethanol. Afterwards, the matrix was regenerated with 40 mM phosphoric acid and 20 mM sodium hydroxid. The flow rate for equilibration, load and wash was 60 cm/h, elution and regeneration was performed at a flow rate of 30 cm/h.
With D-Phe-(L)Arg-(L)Arg-Gly [LI#16] the “mAb in the flow through (in words)” value was “nothing was detected in the flow through”. With DBHBA-(L)Asn-(L)Arg-Gly [LII#55] the “mAb in the flow through (in words)” value was “only limited material is in the flow through”.

The substances below were run on Fc fragment of an antibody (assay: Incubation of bead-bound ligands with labelled Fc fragment, fluorescence on beads). Settings: Oregon Green labelled Fc fragment, ligands on PEGA1900 beads, overnight at room temperature, arbitrary scale from 0 to 3, judged by eye.
Assay type: binding
Design: key: 0 indicates no fluorescence; 3 indicates the strongest level of fluorescence observed
Description: The Fc fragment of an antibody was purified by dialysis in bicarbonate buffer (pH 8). The purified Fc fragment was treated with Oregon Green dye (50×) in DMF and kept for 1 hour at room temperature. The reaction was stopped by adding hydroxylamine (1.5 M, pH 8.5). The labelled polypeptide was purified by dialysis in bicarbonate buffer (pH 8).
The beads (10 mg) were washed with water (10×), bicarbonate buffer (pH 8, 10×), and were suspended in bicarbonate buffer for 1 h. The labelled polypeptide was then added to the resin and kept overnight at room temperature. The resin was washed with bicarbonate buffer (pH 8) and water.
The fluorescence on the beads was recorded by using a fluorescence microscope and a digital camera. A mercury lamp equipped with an emission filter provided excitation in the visible blue range. The images of the beads were recorded in water.
The below table lists the ligands and the corresponding apparent level of fluorescence determined by simply looking at the samples and comparing the apparent colour intensities between samples. On an arbitrary scale from 0 to 3, where 0 indicates no fluorescence and 3 indicates the strongest level of fluorescence observed.
For D-Lys-INA-(L)Arg-Gly [LI#41], the “mark (apparent level of fluorescence)” value was 2. In the case of D-Pro-PPC-(L)Arg-Gly [L1#21], the “mark (apparent level of fluorescence)” value is reported as 2. In the case of L-Arg-(L)Arg-D-Lys-Gly [LI#27], the “mark (apparent level of fluorescence)” value is reported as 2. L-Arg-D-Pro-PPC-Gly [LI#24] was tested, and the “mark (apparent level of fluorescence)” value was 2. With 3HBA-(L)Pro-(L)Arg-Gly [LII#45] the “mark (apparent level of fluorescence)” value was 2. For PPC-D-Leu-PPC-Gly [L1#50], the “mark (apparent level of fluorescence)” value was 3. With L-Arg-D-Phe-(L)Arg-Gly [LI#17] the “mark (apparent level of fluorescence)” value was 3 and 2. 3HBA-(L)Arg-(L)Pro-Gly [LII#44] was tested, and the “mark (apparent level of fluorescence)” value was 2. PPC-D-Pro-(L)Arg-Gly [LI#19] was tested, and the “mark (apparent level of fluorescence)” value was 3. With PPC-Aib-PPC-Gly [LI#14] the “mark (apparent level of fluorescence)” value was 2. L-Arg-(L)Arg-D-Phe-Gly [LI#18] was tested, and the “mark (apparent level of fluorescence)” value was 2. With SAA-(L)Arg-(L)Pro-Gly [LII#48] the “mark (apparent level of fluorescence)” value was 3. D-Phe-(L)Arg-(L)Arg-Gly [LI#16] was tested, and the “mark (apparent level of fluorescence)” value was 2. For L-Arg-D-Lys-(L)Arg-Gly [LI#26], the “mark (apparent level of fluorescence)” value was 2. In the case of INA-D-Phe-PPC-Gly [LI#12], the “mark (apparent level of fluorescence)” value is reported as 2. In the case of PPC-(L)Arg-D-Pro-Gly [LI#20], the “mark (apparent level of fluorescence)” value is reported as 2. INA-(L)Arg-D-Lys-Gly [LI#44] was tested, and the “mark (apparent level of fluorescence)” value was 2. SAA-(L)Pro-(L)Arg-Gly [LII#49] was tested, and the “mark (apparent level of fluorescence)” value was 3. In the case of PPC-Nle-PPC-Gly [LI#56], the “mark (apparent level of fluorescence)” value is reported as 2. With PPC-Ahx-PPC-Gly [LI#53] the “mark (apparent level of fluorescence)” value was 2. For 4HBA-(L)Pro-(L)Arg-Gly [LII#47], the “mark (apparent level of fluorescence)” value was 2. In the case of DBHBA-(L)Arg-(L)Asn-Gly [LII#54], the “mark (apparent level of fluorescence)” value is reported as 3. With DBHBA-(L)Asn-(L)Arg-Gly [LII#55] the “mark (apparent level of fluorescence)” value was 3. 4HBA-(L)Arg-(L)Pro-Gly [LII#46] was tested, and the “mark (apparent level of fluorescence)” value was 2.

Same assay, conditions: Oregon Green labelled Fc fragment, ligands on PEGA1900 beads, overnight at room temperature, arbitrary scale from 0 to 3, judged by eye; listed as L1#16
D-Phe-(L)Arg-(L)Arg-Gly [LI#16] was tested, and the “mark (apparent level of fluorescence)” value was 3.
